Laboratory results published in EP4596547A1, “HETEROCYCLIC COMPOUND AND HARMFUL ARTHROPOD-CONTROLLING COMPOSITION CONTAINING SAME” (priority 2022, dated 2024).

Experiments:
Assay type in all cases: in vivo
[1] = system: Culex pipiens pallens; test: Test method 12: last-instar larvae of Culex pipiens pallens released into diluted solution; conditions: 24 h, 30 last-instar larvae, one day later, 25°C
Protocol: The test compound is formulated according to the method described in Formulation Example 1, and water is added thereto to prepare a diluted solution containing the test compound at a predetermined concentration. 30 last-instar larvae of Culex pipiens pallens are released into the diluted solution, and the state of the larvae of Culex pipiens is examined one day later to determine the Mortality. The mortality is calculated by the following equation. [formula]

[2] = system: diamondback moth (Plutella xylostella); test: Test method 10: sprayed cabbage seedling, third instar larvae of diamondback moth released; conditions: 144 h, sprayed 20 mL/seedling, 10 third instar larvae, after 6 days, 25°C
Protocol: (§1) A test compound is formed into a formulation according to the method described in Formulation Example 5, and water containing 0.03% by volume of Shindain (registered trademark) is added thereto to prepare a diluted solution containing the test compound at a predetermined concentration.
(§2) A cabbage (Brassicae oleracea) seedling (3 to 4 true leaf stage) planted in a container is sprayed with the diluted solution at a rate of 20 mL/seedling. Thereafter, 10 third instar larvae of diamondback moth (Plutella xylostella) are released. After 6 days, the number of surviving insects is counted, and the mortality is determined from the following equation. [formula]

[3] = system: cotton aphids (Aphis gossypii); test: Test method 11: foliar spray on cucumber seedlings inoculated with cotton aphids (formulation per Formulation Example 5); conditions: 120 h, sprayed 10 mL/seedling one day after inoculation, after 5 days, 25°C, read-out: control value
[4] = system: common cutworm (Spodoptera litura); test: Test method 3: sprayed cabbage foliage cut out, second instar larvae of common cutworm released; conditions: foliar, 120 h, sprayed 20 mL/seedling, five second instar larvae, after 5 days, 25°C
Protocol: (§3) A test compound is formed into a formulation according to the method described in Formulation Example 1, and water containing 0.03% by volume of Shindain (registered trademark) is added thereto to prepare a diluted solution containing the test compound at a predetermined concentration.
(§4) A cabbage (Brassicae oleracea) seedling (2 to 3 true leaf stage) planted in a container is sprayed with the diluted solution at a rate of 20 mL/seedling. Thereafter, the foliage portion of the seedling is cut out and placed in a container on which filter paper is laid. Thereto are released five second instar larvae of common cutworm (Spodoptera litura). After 5 days, the number of surviving insects is counted, and the mortality is determined from the following equation. [formula]

[5] = system: Aphis gossypii; test: Test method 2: soil irrigation of cucumber seedlings, later inoculated with Aphis gossypii; conditions: 144 h, irrigated 5 mL/seedling, inoculated after 7 days, surviving insects examined after 6 days, 25°C, read-out: control value
Protocol: The test compound is formulated according to the method described in Formulation Example 5, and water is added thereto to prepare a diluted solution containing the test compound at a predetermined concentration. A cucumber (Cucumis sativus) seedling (second true leaf stage) planted in a container is irrigated with the diluted solution at a rate of 5 mL/seedling. After 7 days, the leaf surface of this seedling is inoculated with about 30 Aphis gossypii (whole stage). After 6 days, the number of surviving insects is examined, and the control value is determined by the following formula. [formula] • Characters in the formula represent the following meanings. • Cb: number of test insects in a non-treated section • Cai: number of surviving insects in a non-treated section at the time of investigation • Tb: number of test insects in a treated section • Tai: number of surviving insects in a treated section at the time of investigation Herein, the non-treated section means a section that is subjected to the same operation as that of the treated section except that the test compound is not used.

[6] = system: cotton aphids (Aphis gossypii); test: Test method 1: foliar spray on cucumber seedlings inoculated with cotton aphids (formulation per Formulation Example 1); conditions: 120 h, 500 ppm, sprayed 10 mL/seedling one day after inoculation, surviving insects examined after 5 days, 25°C, read-out: control value
[7] = system: diamondback moth (Plutella xylostella); test: Test method 4: sprayed cabbage foliage cut out, second instar larvae of diamondback moth released; conditions: foliar, 120 h, sprayed 20 mL/seedling, five second instar larvae, after 5 days, 25°C
Protocol: as §3
as §4, with “diamondback moth (Plutella xylostella).” for “common cutworm (Spodoptera litura).”

[8] = system: Musca domestica; test: Test method 8: container inner surface coated with test compound, Musca domestica; conditions: 24 h, 40 mg/m^2 (800 ppm acetone solution), five adult female, 1 days, 25°C
Protocol: An acetone solution prepared such that the amount of the test compound is 800 ppm is poured into a container having an internal volume of 20 mL, and the inner surface of the container is uniformly coated such that the amount of the test compound is 40 mg/m^2, and then dried.
Five adult female Musca domestica are placed in the container, and the lid is closed. After a lapse of a predetermined time, the state of Musca domestica is examined, and the mortality is determined. The mortality is calculated by the following equation. [formula]

[9] = system: Blattella germanica; test: Test method 6: container inner surface coated with test compound, Blattella germanica; conditions: 72 h
Protocol: An acetone solution prepared such that the amount of the test compound is 800 ppm is poured into a container having an internal volume of 50 mL, and the inner surface of the container is uniformly coated such that the amount of the test compound is 40 mg/m^2, and then dried.
Five male imagoes of Blattella germanica are placed in the container, and the lid is closed. After a lapse of a predetermined time, the state of Blattella germanica is examined, and the mortality is determined. The mortality is calculated by the following equation. [formula]

[10] = system: common cutworm (Spodoptera litura); test: Test method 9: sprayed cabbage seedling, third instar larvae of common cutworm released; conditions: 144 h
Protocol: as §1
as §2, with “common cutworm (Spodoptera litura)” for “diamondback moth (Plutella xylostella)”

[11] = system: Western corn rootworm (Diabrotica virgifera virgifera); test: whole plant or invertebrate; conditions: 120 h
Protocol: Each 1 mg of the test compound is dissolved in 50 µL of a mixed solution of polyoxyethylene sorbitan monococoate and acetone (5 : 95 (volume ratio)). Water containing 0.03% by volume of Shindain (registered trademark) is added thereto to prepare a diluted solution containing the test compound at a predetermined concentration.
Young seedlings of maize (Zea mays) are immersed in the diluted solution for 30 seconds. Thereafter, the two […] are placed in a petri dish (90 mm diameter), and thereto are released 10 second instar larvae of Western corn rootworm (Diabrotica virgifera virgifera). After 5 days, the number of dead insects is counted, and the mortality is determined from the following equation. [formula]

[12] = system: Haemaphysalis longicornis; test: Test method 7: container inner surface coated with test compound, Haemaphysalis longicornis nymphs; conditions: 48 h, 100 mg/m^2 (2000 ppm acetone solution), five nymphs, 2 days, 25°C
Protocol: An acetone solution prepared such that the amount of the test compound is 2000 ppm is poured into a container having an internal volume of 20 mL, and the inner surface of the container is uniformly coated such that the amount of the test compound is 100 mg/m^2, and then dried.
Five nymphs of Haemaphysalis longicornis are placed in the container, and the lid is closed. After a lapse of a predetermined time, the state of Haemaphysalis longicornis is examined to determine the mortality. The mortality is calculated by the following equation. [formula]

Structure (SMILES): CCS(=O)(=O)c1c(N(C)C(=O)c2cnc(C(F)(F)F)s2)nc2ccc(I)cn12 [compound 40]
- mortality at 3.5 ppm [1]: > 90%
- mortality at 50 ppm [2]: ≥ 80%
- mortality at 200 ppm [2]: ≥ 80%
- mortality at 50 ppm [3]: ≥ 90%
- mortality at 200 ppm [3]: ≥ 90%
- mortality at 500 ppm [4]: ≥ 80%
- mortality at 1000 ppm [5]: ≥ 90%
- mortality at 500 ppm [6]: ≥ 90%
- mortality at 500 ppm [7]: ≥ 80%

Structure (SMILES): CCSc1c(N(C)C(=O)c2cc(C(F)(F)F)n(C)n2)nc2ccc(I)cn12 [compound 16]
- mortality at 3.5 ppm [1]: > 90%
- mortality at 200 ppm [3]: ≥ 90%
- mortality at 500 ppm [4]: ≥ 80%
- mortality at 1000 ppm [5]: ≥ 90%
- mortality at 500 ppm [6]: ≥ 90%
- mortality at 500 ppm [7]: ≥ 80%
- mortality at 40 mg/m2, 40 mg/m2 [8]: ≥ 80%

Structure (SMILES): CCSc1c(N(C)C(=O)c2ccc(C(F)(F)F)s2)nc2ccc(I)cn12 [compound 6]
- mortality at 3.5 ppm [1]: > 90%
- mortality at 200 ppm [2]: ≥ 80%
- mortality at 50 ppm [3]: ≥ 90%
- mortality at 200 ppm [3]: ≥ 90%
- mortality at 500 ppm [4]: ≥ 80%
- mortality at 500 ppm [6]: ≥ 90%
- mortality at 500 ppm [7]: ≥ 80%
- mortality at 40 mg/m2, 40 mg/m2 [8]: ≥ 80%

Structure (SMILES): CCSc1c(N(C)C(=O)c2cnn(C(F)(F)F)c2)nc2ccc(I)cn12 [compound 23]
- mortality at 3.5 ppm [1]: > 90%
- mortality at 200 ppm [3]: ≥ 90%
- mortality at 40 mg/m2, 40 mg/m2 [9]: ≥ 80%
- mortality at 200 ppm [10]: ≥ 80%
- mortality at 500 ppm [6]: ≥ 90%
- mortality at 500 ppm [7]: ≥ 80%

Structure (SMILES): CCS(=O)(=O)c1c(N(C)C(=O)c2cc(C(F)(F)F)n(C)n2)nc2ccc(I)cn12 [compound 52]
- mortality at 3.5 ppm [1]: > 90%
- mortality at 50 ppm [2]: ≥ 80%
- mortality at 200 ppm [2]: ≥ 80%
- mortality at 50 ppm [3]: ≥ 90%
- mortality at 200 ppm [3]: ≥ 90%
- mortality at 1000 ppm [5]: ≥ 90%
- mortality at 500 ppm [6]: ≥ 90%
- mortality at 200 ppm [11]: ≥ 80%
- mortality at 500 ppm [7]: ≥ 80%
- mortality at 40 mg/m2, 40 mg/m2 [8]: ≥ 80%

Structure (SMILES): CC[S+]([O-])c1c(N(C)C(=O)c2cnc(C(F)(F)F)s2)nc2cc(I)ccn12 (stereo not shown) [compound 45]
- mortality at 3.5 ppm [1]: > 90%
- mortality at 50 ppm [3]: ≥ 90%
- mortality at 200 ppm [3]: ≥ 90%
- mortality at 100 mg/m2, 100 mg/m2 [12]: ≥ 80%
- mortality at 500 ppm [6]: ≥ 90%

Structure (SMILES): CCS(=O)(=O)c1c(N(C)C(=O)c2cnc(C(F)(F)F)s2)nc2cc(Br)ccn12 [compound 48]
- mortality at 3.5 ppm [1]: > 90%
- mortality at 200 ppm [2]: ≥ 80%
- mortality at 50 ppm [3]: ≥ 90%
- mortality at 200 ppm [3]: ≥ 90%
- mortality at 500 ppm [4]: ≥ 80%
- mortality at 500 ppm [6]: ≥ 90%
- mortality at 500 ppm [7]: ≥ 80%
